Data taken from ChEMBL document CHEMBL4825768 (ACS Med Chem Lett, 2021).

Tests used:
[1] = target: T1, GTPase KRas (Homo sapiens, UniProt P01116, G12C); assay: (§1) Inhibition of GDP-bound KRAS G12C mutant (1 to 169 residues) (unknown origin) assessed as inhibition of SOS-mediated nucleotide exchange pretreated with KRAS for 20 hrs followed by incubation with SOS (564 to 1049 residues) and GTP for 30 mins and later incubated with GST-tagged cRAF (1 to 149 residues) for 10 mins by AlphaLISA assay; assay type: single protein
[2] = target: T1, GTPase KRas; assay: as §1, with “5 mins” for “20 hrs”; assay type: single protein
[3] = tested on: GTPase KRas (Homo sapiens), P01116 [G12D]; assay: Binding affinity to GDP-bound KRAS G12D mutant (unknown origin) assessed as bound fraction at 100 uM incubated for 20 hrs by RF-MS analysis relative to control
[4] = target: T1, GTPase KRas; assay: Inhibition of KRAS G12C mutant in human MIA PaCa-2 cells assessed as reduction in phosphorylated ERK1/2 level incubated for 2 hrs by MSD assay; assay type: cell-based

Row | Structure (SMILES) | IC50 [1] [nM] | IC50 [2] [nM] | Activity [3] [%] | IC50 [4] [nM]
1 | Cc1ccnc(C(C)C)c1-n1c(=O)nc(N2CC(NC(=O)C3CO3)C2)c2cc(Cl)c(-c3ccccc3F)nc21 (centres undefined) | 18 | 4410 | – | –
2 | CCOC(=O)[C@@H]1O[C@H]1C(=O)N1CCN(c2nc(=O)n(-c3c(C)ccnc3C(C)C)c3nc(-c4ccccc4F)c(Cl)cc23)[C@@H](C)C1 | 5 | 216 | 3.4 | 96
3 | Cc1ccnc(C(C)C)c1-n1c(=O)nc(N2C[C@@H](C)N(C(=O)[C@H]3CO3)C[C@@H]2C)c2cc(Cl)c(-c3c(N)cccc3F)nc21 | 15 | 560 | 15.8 | –
4 | Cc1ccnc(C(C)C)c1-n1c(=O)nc(N2C[C@@H](C)N(C(=O)[C@H]3CO3)C[C@@H]2C)c2cc(Cl)c(-c3c(O)cccc3F)nc21 | 24 | 653 | 8.1 | –
5 | Cc1ccnc(C(C)C)c1-n1c(=O)nc(N2CCN(C(=O)[C@H]3CO3)C[C@@H]2C)c2cc(Cl)c(-c3ccccc3F)nc21 | 27 | 3780 | 3.4 | –
6 | Cc1ccnc(C(C)C)c1-n1c(=O)nc(N2CCN(C(=O)[C@@H]3O[C@H]3CN3CCCCC3)C[C@@H]2C)c2cc(Cl)c(-c3ccccc3F)nc21 | 5 | 1120 | – | –
7 | Cc1ccnc(C(C)C)c1-n1c(=O)nc(N(C)C2CN(C(=O)C3CO3)C2)c2cc(Cl)c(-c3ccccc3F)nc21 (centres undefined) | 227 | 13800 | – | –
8 | Cc1ccnc(C(C)C)c1-n1c(=O)nc(N2CCN(C(=O)[C@@H]3O[C@H]3CO)C[C@@H]2C)c2cc(Cl)c(-c3ccccc3F)nc21 | 64 | 6260 | – | –
9 | Cc1ccnc(C(C)C)c1-n1c(=O)nc(N2CCN(C(=O)C=O)C[C@@H]2C)c2cc(Cl)c(-c3ccccc3F)nc21 | 39 | 610 | – | 711
10 | Cc1ccnc(C(C)C)c1-n1c(=O)nc(N2CCN(C(=O)C3OC3C)C[C@@H]2C)c2cc(Cl)c(-c3ccccc3F)nc21 (some centres undefined) | 96 | 17800 | – | –
11 | COC(=O)/C=C/C(=O)N1CCN(c2nc(=O)n(-c3c(C)ccnc3C(C)C)c3nc(-c4ccccc4F)c(Cl)cc23)[C@@H](C)C1 | 26 | 95 | – | 61
